# Literature values as cited in patent US20140206025A1, “Use Of Detection Of Aspartate Transaminase And Lactate Dehydrogenase In Early Evaluation Of Clinical Efficacy Of Antitumor Intervention Measure” (Beijing Sunbio Biotech Co., Ltd., priority 2011, published 2014).
# Test system: tumor cells
# Details: Cytokin & Growth Factor Reviews 14 (2003) 337-348
substance,measurement,value
"TRAIL/APO-2L: wild type Tumor necrosis factor-related apoptosis-inducing ligand, acts on Death Receptor 4 and/or 5",induction of apoptosis of tumor cells,selectively induces the apoptosis of multiple tumor cells
same,toxic effect on normal cells,no obvious toxic effect on normal cells
